Reference: patent publication US10538516B2, “Oxadiazole derivative and pharmaceutical containing same” (National Center for Geriatrics and Gerontology, priority 2015, dated 2020)
Where a name gives a salt, the structure may show the parent alone. Read-outs that look alike come from different tables or passages of the source.

Molecular target: T1, GAβ-dependent amyloid fibril formation (Human Aβ1-40 + GM1-containing liposome) (Homo sapiens, UniProt P05067)
T1 construct: Human Aβ1-40 (cat. #4307-v, prepared by Peptide Institute); purchased Peptide Institute 4307-v
Experiment: Thioflavin T (ThT) assay of GAβ-dependent amyloid fibril formation (Aβ1-40 with GM1-containing liposome)
Assay type: biochemical
In short: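 Human Aβ1-40 (75 μM stock) pre-incubated 10 min at room temperature with compound (75 or 15 μM solution), then GM1-containing cholesterol/sphingomyelin liposome added and incubated 37° C, 18 hours. Fibrils quantified by ThT fluorescence (ex 430/em 490 nm, pH 8.5 glycine buffer); inhibition as ratio to compound-free control.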

[1] = inhibition rate against amyloid fibril formation, final concentration of the compound 25 μM, read-out: Inhibitory activity ABC evaluation
[2] = @25 μM, read-out: ThT Inhibitory activity (% inhibition)

T1 sequence (P05067 672-711 limits assumed): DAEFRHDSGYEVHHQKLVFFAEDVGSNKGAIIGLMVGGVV

inhibition at 25 µM [1] [%] | SMILES | other results
< 40 | O=C(c1c[nH]c2ccccc12)N1C[C@H](O)C[C@H]1c1nc(-c2ccc(OC(F)(F)F)cc2)no1 [Compound 47, ((2S,4R)-4-hydroxy-2-[3-{4-(trifluoro-methoxy)phenyl}-1,2,4-oxadiazol-5-yl]pyrrolidin-1-yl)(1H-indol-3-yl)methanone] | 
40 to 80 | COc1ccc(-c2noc(C3CC(=O)N(c4ccc(Cl)cc4)C3)n2)cn1 (stereo not drawn) [Compound 54, 1-(4-chlorophenyl)-4-{3-(6-methoxy-pyridin-3-yl)-1,2,4-oxadiazol-5-yl}pyrrolidin-2-one] | 
 | Cl.O=C(N[C@@H](CO)c1nc(-c2ccc(C(F)(F)F)cn2)no1)c1ccc(F)cc1 [Compound 206, 4-fluoro-N-[(1S)-2-hydroxy-1-{3-[5-(trifluoromethyl)pyridin-2-yl]-1,2,4-oxadiazol-5-yl}ethyl]benzamide hydrochloride] | inhibition at 25 µM [2]: 55%; Inhibitory activity ABC evaluation (inhibition rate against amyloid fibril formation, final concentration of the compound 25 μM): B (40% or more and less than 80% were evaluated as B)
40 to 80 | O=C1CC(CO)(c2nc(-c3ccc(O)c(F)c3)no2)CN1c1ccc(Cl)cc1 (stereo not drawn) [Compound 90, 1-(4-chlorophenyl)-4-{3-(3-fluoro-4-hydroxyphenyl)-1,2,4-oxadiazol-5-yl}-4-(hydroxy-methyl)pyrrolidin-2-one] | 
> 80 | O=C(N[C@@H](CO)c1nc(-c2ccc(OC(F)(F)F)cc2)no1)c1ccc(F)cc1 [Compound 69, (S)-4-fluoro-N-(2-hydroxy-1-[3-{4-(trifluoro-methoxy)phenyl}-1,2,4-oxadiazol-5-yl]ethyl) benzamide] | inhibition at 25 µM [2]: 87%
> 80 | O=C(NC(CO)c1nc(-c2ccc(C(F)(F)F)cc2)no1)c1ccc(C(F)(F)F)cc1 (stereo not drawn) [Compound 188, N-(2-hydroxy-1-{3-[4-(trifluoromethyl)phenyl]-1,2,4-oxadiazol-5-yl}ethyl)-4-(trifluoromethyl) benzamide] | 
< 40 | O=C1CC(c2nc(-c3ccc(Cl)cc3)no2)CN1c1ccc(Cl)cc1 (stereo not drawn) [Compound 59, 1-(4-chlorophenyl)-4-{3-(4-chlorophenyl)-1,2,4-oxadiazol-5-yl}pyrrolidin-2-one] | 
40 to 80 | O=C(N[C@@H](CO)c1nc(-c2ccc(C(F)(F)F)cc2)no1)c1ccc2ccccc2c1 [Compound 202, N-[(1S)-2-hydroxy-1-{3-[4-(trifluoromethyl)phenyl]-1,2,4-oxadiazol-5-yl}ethyl]naphthalene-2-carboxamide] | 
< 40 | O=C1C[C@@H](c2nc(-c3ccc(OC(F)(F)F)cc3)no2)N(C(=O)c2ccc(Cl)cc2)C1 [Compound 57, (S)-1-(4-chlorobenzoyl)-5-{3-[4-(trifluoromethoxy)phenyl]-1,2,4-oxadiazol-5-yl}pyrrolidin-3-one] | 
> 80 | O=C1CC(CO)(c2nc(-c3ccc4c(c3)OC(F)(F)O4)no2)CN1c1ccc(Cl)cc1 (stereo not drawn) [Compound 73, 1-(4-chlorophenyl)-4-[3-(2,2-difluorobenzo[d][1,3]dioxol-5-yl)-1,2,4-oxadiazol-5-yl]-4-(hydroxymethyl)pyrrolidin-2-one] | 
< 40 | NC(=O)C[C@H](NC(=O)c1ccc(Cl)cc1)c1nc(-c2ccc(OC(F)(F)F)cc2)no1 [Compound 86, (S)-N-(3-amino-3-oxo-1-{3-[4-(trifluoromethoxy)phenyl]-1,2,4-oxadiazol-5-yl}propyl)-4-chlorobenzamide] | 
< 40 | C=C(NC(=O)c1ccc(Cl)cc1)c1nnc(-c2ccc(OC(F)(F)F)cc2)o1 [Compound 115, 4-chloro-N-(1-(5-(4-(trifluoromethoxy)phenyl)-1,3,4-oxadiazol-2-yl)vinyl)benzamide] | 
40 to 80 | O=C(CCc1nc(-c2ccc(OC(F)(F)F)cc2)no1)N1CCCc2ccccc21 [Compound 12, 1-{3,4-dihydroquinolin-1(2H)-yl}-3-[3-{4-(trifluoromethoxy)phenyl}-1,2,4-oxadiazol-5-yl]propan-1-one] | 
< 40 | O=C(c1ccc(Cl)cn1)N1C[C@H](O)C[C@H]1c1nc(-c2ccc(OC(F)(F)F)cc2)no1 [Compound 60, (5-chloropyridin-2-yl)((2S,4R)-4-hydroxy-2-[3-{4-(trifluoro-methoxy)phenyl}-1,2,4-oxadiazol-5-yl]pyrrolidin-1-yl)methanone] | 
40 to 80 | O=C1CC(c2nc(-c3ccc(F)cc3)no2)CN1c1ccc(Cl)cc1 (stereo not drawn) [Compound 61, 1-(4-chlorophenyl)-4-{3-(4-fluorophenyl)-1,2,4-oxadiazol-5-yl} pyrrolidin-2-one] | 
40 to 80 | COc1ccc(-c2noc(C3CC(=O)N(c4ccc(Cl)cc4)C3)n2)cc1 (stereo not drawn) [Compound 24, 1-(4-chlorophenyl)-4-{3-(4-methoxyphenyl)-1,2,4-oxadiazol-5-yl}pyrrolidin-2-one] | 
40 to 80 | O=C(N[C@@H](CO)c1nc(-c2ccc(C3(F)COC3)cc2)no1)c1ccc(F)cc1 [Compound 190, 4-fluoro-N-[(1S)-1-{3-[4-(3-fluorooxetan-3-yl)phenyl]-1,2,4-oxadiazol-5-yl}-2-hydroxyethyl] benzamide] | inhibition at 25 µM [2]: 67%
40 to 80 | O=C(N[C@@H](CO)c1nc(-c2ccc(CF)cc2)no1)c1ccc(F)cc1 [Compound 161, 4-fluoro-N-[(1S)-1-{3-[4-(fluoromethyl)phenyl]-1,2,4-oxadiazol-5-yl}-2-hydroxyethyl] benzamide] | 
40 to 80 | O=C(N[C@@H](CO)c1nc(-c2ccc(C(F)(F)F)cc2)no1)C1CC(=O)N(c2ccc(Cl)cc2)C1 (stereo partly drawn) [Compound 193, 1-(4-chlorophenyl)-N-[(1S)-2-hydroxy-1-{3-[4-(trifluoromethyl)phenyl]-1,2,4-oxadiazol-5-yl}ethyl]-5-oxopyrrolidine-3-carboxamide] | 
> 80 | O=C(N[C@@H](CO)c1nc(-c2cccc(C(F)(F)F)c2)no1)c1ccccc1 [Compound 177, N-[(1S)-2-hydroxy-1-{3-[3-(trifluoromethyl)phenyl]-1,2,4-oxadiazol-5-yl}ethyl] benzamide] | 
40 to 80 | O=C(O)C[C@H](NC(=O)c1ccc(Cl)cc1)c1nc(-c2ccc(OC(F)(F)F)cc2)no1 [Compound 81, (S)-3-(4-chlorobenzamide)-3-{3-[4-(trifluoromethoxy)phenyl]-1,2,4-oxadiazol-5-yl}propanoic acid] | 
40 to 80 | O=C(N[C@@H](CO)c1nc(-c2ccc(C(F)(F)F)cc2)no1)c1ccc(Cl)cn1 [Compound 239, 5-chloro-N-[(1S)-2-hydroxy-1-{3-[4-(trifluoromethyl)phenyl]-1,2,4-oxadiazol-5-yl}ethyl]pyridine-2-carboxamide] | inhibition at 25 µM [2]: 64%
> 80 | CN(C)c1ccc(-c2noc([C@H](CO)NC(=O)c3ccccc3)n2)cc1 [Compound 150, N-[(1S)-1-{3-[4-(dimethylamino)phenyl]-1,2,4-oxadiazol-5-yl}-2-hydroxyethyl] benzamide] | 
< 40 | O=C(N[C@@H](CO)c1nc(-c2cccc(C(F)(F)F)c2)no1)c1cn2ccccc2n1 [Compound 244, N-[(1S)-2-hydroxy-1-{3-[3-(trifluoromethyl)phenyl]-1,2,4-oxadiazol-5-yl}ethyl]imidazo[1,2-a]pyridine-2-carboxamide] | 
40 to 80 | O=C(N[C@@H](CO)c1nc(-c2ccc(OCCO)cc2)no1)c1ccccc1 [Compound 156, N-[(1S)-2-hydroxy-1-{3-[4-(2-hydroxyethoxy)phenyl]-1,2,4-oxadiazol-5-yl}ethyl] benzamide] | inhibition at 25 µM [2]: 74%
> 80 | O=C(N[C@@H](CO)c1nc(-c2ccc(C(F)(F)F)cc2)no1)c1ccc(N2CCCC2)cc1 [Compound 203, N-[(1S)-2-hydroxy-1-{3-[4-(trifluoromethyl)phenyl]-1,2,4-oxadiazol-5-yl}ethyl]-4-(pyrrolidin-1-yl) benzamide] | inhibition at 25 µM [2]: 81%
< 40 | O=C1CC(c2nnn(-c3ccc(OC(F)(F)F)cc3)n2)CN1c1ccc(Cl)cc1 (stereo not drawn) [Compound 122, 1-(4-chlorophenyl)-4-{2-[4-(trifluoromethoxy)phenyl]-2H-tetrazol-5-yl}pyrrolidin-2-one] | 
40 to 80 | O=C(N[C@@H](CO)c1nc(-c2ncccn2)no1)c1ccc(F)cc1 [Compound 246, 4-fluoro-N-[(1S)-2-hydroxy-1-[3-(pyrimidin-2-yl)-1,2,4-oxadiazol-5-yl]ethyl]benzamide] | 
< 40 | O=C(N[C@@H](CO)c1nc(-c2ccc(OC(F)(F)F)cc2)no1)c1ccc(O)c(Cl)c1 [Compound 98, (S)-3-chloro-4-hydroxy-N-(2-hydroxy-1-[3-{4-(trifluoromethoxy)phenyl}-1,2,4-oxadiazol-5-yl]ethyl)benzamide] | 
> 80 | COc1ccc(-c2noc([C@H](CO)NC(=O)c3ccc(Cl)cc3)n2)cc1 [Compound 125, (S)-4-chloro-N-(2-hydroxy-1-(3-(4-methoxyphenyl)-1,2,4-oxadiazol-5-yl)ethyl)benzamide] | inhibition at 5 µM (@5 μM, read-out: ThT Inhibitory activity (% inhibition)): 59%; inhibition at 25 µM [2]: 88%

SMILES | inhibition at 25 µM [1] [%] | other results
COc1ccc(-c2noc([C@@H](N)Cc3c[nH]c4ccccc34)n2)cc1 [Compound 18, (S)-2-(1H-indol-3-yl)-1-{3-(4-methoxyphenyl)-1,2,4-oxadiazol-5-yl}ethan-1-amine] | > 80 | inhibition at 25 µM [2]: 86%
N[C@@H](Cc1c[nH]c2ccccc12)c1nc(-c2ccc(OC(F)(F)F)cc2)no1 [Compound 25, (S)-2-(1H-indole-3-yl)-1-[3-(4-trifluoromethoxyphenyl)-1,2,4-oxadiazole-5-yl]ethane-1-amine] | > 80 | 
N[C@@H](Cc1c[nH]c2ccccc12)c1nnc(-c2ccc(OC(F)(F)F)cc2)o1 [Compound 110, (S)-2-(1H-indol-3-yl)-1-(5-(4-(trifluoro-methoxy)phenyl)-1,3,4-oxadiazol-2-yl) ethan-1-amine hydrochloride] | 40 to 80 | 
